Source: patent publication US20130164384A1, “METHODS OF TREATING BOWEL DISEASES BY ADMINISTERING A BOWEL CLEANSER AND AN ANTIBIOTIC” (Salix Pharmaceuticals, Ltd., priority 2008, published 2013)

Tested on: subjects with dIBS
Assay: Study of three rifaximin doses in subjects with dIBS: adequate relief of IBS symptoms and bloating
Type: in vivo, human
Details: for Treatment effect (Bloating) / Treatment effect (IBS Sx): matches RFX 550 2 w minus PBO success rate; for Adequate Relief of Bloating: Failure / Adequate Relief of Bloating: Success / Adequate Relief of IBS Symptoms: Failure / Adequate Relief of IBS Symptoms: Success: end of treatment phase
Experimental: This example relates to a study of three rifaximin doses in subjects with dIBS. Subjects were randomized to receive daily BID doses of rifaximin 275 mg, 550 mg, or 1100 mg for 14 days. A fifth group of subjects received rifaximin 550 mg BID for a period of 28 days. Subjects were questioned on the relief of overall IBS symptoms and bloating. […] The analyses defined success as a “yes” response to questions regarding adequate relief of SGA or IBS-B in at least 2 out of the final 3 weeks of the double-blind treatment period.
Baseline severity was determined using 7-point Lickert scales during screening for Abdominal Pain/Discomfort and Bloating, and the number, type (normal, hard, loose) and urgency of bowel movements.
Duration of effect was assessed in a 12 week follow-up period. Subjects that responded in the 4 week double-blind treatment period were followed for an additional 3 months. Fifty-three (53) subjects from the 550 mg 2 w and 59 subjects from the placebo-treated groups participated in this study phase.
Subjects recorded the following information on dIBS symptoms daily throughout the duration of the study: • Number of normal stools/day; • Number of hard and lumpy stools/day; • Number of loose or watery stools/day; • Number of loose or watery stools/day with the symptom of urgency; • How bothersome is abdominal pain and discomfort? [7-point response scale: 0 (not at all) to 6 (a very great deal)]; • How bothersome is bloating? [(7-point response scale: 0 (not at all) to 6 (a very great deal)].
Weekly summary variables were computed by averaging the recorded values over all pre-treatment days or over the seven days preceding the time point of interest for post-treatment assessments. For example, baseline included Days −10 to 0, Week 1 included Days 1 to 7, Week 2 included Days 8 to 14, and so forth through Week 16. Changes from baseline variables were computed for each weekly summary score.

[1] = 550 mg BID for 2 weeks, success = yes in at least 2 of final 3 weeks
[2] = GI Cleanser Prior to Rifaximin Administration: N
[3] = GI Cleanser Prior to Rifaximin Administration: Y
[4] = RFX 275 2 w (275 mg BID 14 days), Had a Screening Colonoscopy: No
[5] = RFX 275 2 w (275 mg BID 14 days), Had a Screening Colonoscopy: Yes
[6] = RFX 275 2 w (275 mg BID 14 days), Screening Colonoscopy <=26 Days
[7] = RFX 275 2 w (275 mg BID 14 days), Screening Colonoscopy >26 Days
[8] = RFX 275 2 w (275 mg BID 14 days), had screening colonoscopy, Average Abdominal Pain Discomfort Score at Baseline <=4
[9] = RFX 275 2 w (275 mg BID 14 days), had screening colonoscopy, Average Abdominal Pain Discomfort Score at Baseline >4
[10] = RFX 275 2 w (275 mg BID 14 days), had screening colonoscopy, Average Bloating Discomfort Score at Baseline <=4
[11] = RFX 275 2 w (275 mg BID 14 days), had screening colonoscopy, Average Bloating Discomfort Score at Baseline >4
[12] = RFX 550 2 w (550 mg BID 14 days), Had a Screening Colonoscopy: No
[13] = RFX 550 2 w (550 mg BID 14 days), Had a Screening Colonoscopy: Yes
[14] = RFX 550 2 w (550 mg BID 14 days), Screening Colonoscopy <=26 Days
[15] = RFX 550 2 w (550 mg BID 14 days), Screening Colonoscopy >26 Days
[16] = RFX 550 2 w (550 mg BID 14 days), had screening colonoscopy, Average Abdominal Pain Discomfort Score at Baseline <=4
[17] = RFX 550 2 w (550 mg BID 14 days), had screening colonoscopy, Average Abdominal Pain Discomfort Score at Baseline >4
[18] = RFX 550 2 w (550 mg BID 14 days), had screening colonoscopy, Average Bloating Discomfort Score at Baseline <=4

COC1/C=C/OC2(C)Oc3c(C)c(O)c4c(O)c(c5c(nc6cc(C)ccn65)c4c3C2=O)NC(=O)/C(C)=C\C=C\C(C)C(O)C(C)C(O)C(C)C(OC(C)=O)C1C [RFX, (2S,16Z,18E,20S,21S,22R,23R,24R,25S,26S,27S,28E)-5,6,21,23,25 Pentahydroxy-27-methoxy-2,4,11,16,20,22,24,26-octamethyl-2,7-(epoxypentadeca-(1,11,13)trienimino)benzofuro(4,5-e)pyrido(1,2,-a)benzimidazole-1,15(2H)-dione,25-acetate]
Duration of effect (maintaining symptom relief) versus placebo (550 mg BID 2 w responders, 12 week follow-up period): better chance of maintaining symptom relief | Adequate relief of IBS related symptoms (SGA) compared to placebo [1]: statistically significant relief | Adequate relief of IBS-related bloating (IBS-B) compared to placebo [1]: statistically significant relief | Treatment effect (Bloating) [2]: −0.9% | Treatment effect (IBS Sx) [2]: 4.7% | Treatment effect (Bloating) [3]: 13.8% | Treatment effect (IBS Sx) [3]: 11.6% | Adequate Relief of Bloating: Failure [4]: 36 (67.9%) n (%) | Adequate Relief of Bloating: Success [4]: 17 (32.1%) n (%) | Adequate Relief of IBS Symptoms: Failure [4]: 32 (60.4%) n (%) | Adequate Relief of IBS Symptoms: Success [4]: 21 (39.6%) n (%) | Adequate Relief of Bloating: Failure [5]: 24 (57.1%) n (%) | Adequate Relief of Bloating: Success [5]: 18 (42.9%) n (%) | Adequate Relief of IBS Symptoms: Failure [5]: 23 (54.8%) n (%) | Adequate Relief of IBS Symptoms: Success [5]: 19 (45.2%) n (%) | Adequate Relief of Bloating: Failure [6]: 10 (55.6%) n (%) | Adequate Relief of Bloating: Success [6]: 8 (44.4%) n (%) | Adequate Relief of IBS Symptoms: Failure [6]: 11 (61.1%) n (%) | Adequate Relief of IBS Symptoms: Success [6]: 7 (38.9%) n (%) | Adequate Relief of Bloating: Failure [7]: 14 (58.3%) n (%) | Adequate Relief of Bloating: Success [7]: 10 (41.7%) n (%) | Adequate Relief of IBS Symptoms: Failure [7]: 12 (50.0%) n (%) | Adequate Relief of IBS Symptoms: Success [7]: 12 (50.0%) n (%) | Adequate Relief of Bloating: Failure [8]: 22 (59.5%) n (%) | Adequate Relief of Bloating: Success [8]: 15 (40.5%) n (%) | Adequate Relief of IBS Symptoms: Failure [8]: 21 (56.8%) n (%) | Adequate Relief of IBS Symptoms: Success [8]: 16 (43.2%) n (%) | Adequate Relief of Bloating: Failure [9]: 2 (40.0%) n (%) | Adequate Relief of Bloating: Success [9]: 3 (60.0%) n (%) | Adequate Relief of IBS Symptoms: Failure [9]: 2 (40.0%) n (%) | Adequate Relief of IBS Symptoms: Success [9]: 3 (60.0%) n (%) | Adequate Relief of Bloating: Failure [10]: 22 (59.5%) n (%) | Adequate Relief of Bloating: Success [10]: 15 (40.5%) n (%) | Adequate Relief of IBS Symptoms: Failure [10]: 21 (56.8%) n (%) | Adequate Relief of IBS Symptoms: Success [10]: 16 (43.2%) n (%) | Adequate Relief of Bloating: Failure [11]: 2 (40.0%) n (%) | Adequate Relief of Bloating: Success [11]: 3 (60.0%) n (%) | Adequate Relief of IBS Symptoms: Failure [11]: 2 (40.0%) n (%) | Adequate Relief of IBS Symptoms: Success [11]: 3 (60.0%) n (%) | Adequate Relief of Bloating: Failure [12]: 59 (62.1%) n (%) | Adequate Relief of Bloating: Success [12]: 36 (37.9%) n (%) | Adequate Relief of IBS Symptoms: Failure [12]: 49 (51.6%) n (%) | Adequate Relief of IBS Symptoms: Success [12]: 46 (48.4%) n (%) | Adequate Relief of Bloating: Failure [13]: 44 (45.8%) n (%) | Adequate Relief of Bloating: Success [13]: 52 (54.2%) n (%) | Adequate Relief of IBS Symptoms: Failure [13]: 42 (43.8%) n (%) | Adequate Relief of IBS Symptoms: Success [13]: 54 (56.3%) n (%) | Adequate Relief of Bloating: Failure [14]: 18 (40.9%) n (%) | Adequate Relief of Bloating: Success [14]: 26 (59.1%) n (%) | Adequate Relief of IBS Symptoms: Failure [14]: 20 (45.5%) n (%) | Adequate Relief of IBS Symptoms: Success [14]: 24 (54.5%) n (%) | Adequate Relief of Bloating: Failure [15]: 26 (50.0%) n (%) | Adequate Relief of Bloating: Success [15]: 26 (50.0%) n (%) | Adequate Relief of IBS Symptoms: Failure [15]: 22 (42.3%) n (%) | Adequate Relief of IBS Symptoms: Success [15]: 30 (57.7%) n (%) | Adequate Relief of Bloating: Failure [16]: 38 (45.8%) n (%) | Adequate Relief of Bloating: Success [16]: 45 (54.2%) n (%) | Adequate Relief of IBS Symptoms: Failure [16]: 37 (44.6%) n (%) | Adequate Relief of IBS Symptoms: Success [16]: 46 (55.4%) n (%) | Adequate Relief of Bloating: Failure [17]: 6 (46.2%) n (%) | Adequate Relief of Bloating: Success [17]: 7 (53.8%) n (%) | Adequate Relief of IBS Symptoms: Failure [17]: 5 (38.5%) n (%) | Adequate Relief of IBS Symptoms: Success [17]: 8 (61.5%) n (%) | Adequate Relief of Bloating: Failure [18]: 36 (45.0%) n (%) | Adequate Relief of Bloating: Success [18]: 44 (55.0%) n (%) | Adequate Relief of IBS Symptoms: Failure [18]: 34 (42.5%) n (%) | Adequate Relief of IBS Symptoms: Success [18]: 46 (57.5%) n (%) | Adequate Relief of Bloating: Failure (RFX 550 2 w (550 mg BID 14 days), had screening colonoscopy, Average Bloating Discomfort Score at Baseline >4): 8 (50.0%) n (%)
